# Laboratory results taken from the METLIN SMRT retention time set (Domingo-Almenara et al. 2019).
# Experiment: gradient 5% acetonitrile 3 min, to 50% in 2 min, to 85% in 15 min, held 3 min, 100 µL/min
# Conditions: column: Zorbax Extend-C18 2.1 x 50 mm; eluents: water / acetonitrile, 0.1% formic acid
# Summary of the method: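 Pure standards were analyzed in mixtures of ~100 molecules using HPLC coupled to a quadrupole time-of-flight mass spectrometer, in both positive and negative ionization mode. Separation used a Zorbax Extend-C18 column (2.1 × 50 mm, 1.8 μm) at 100 μL/min, with water and acetonitrile each containing 0.1% formic acid. Dead and dwell volumes were 40 μL and 900 μL, and data were collected over 3 months. Retention time was read from computationally picked adduct peaks, each inspected manually.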
row,Compound,RP-LC retention time [s]
1,O=C(COc1ccccc1-c1nnc(-c2ccccc2)o1)NCc1ccco1,961
2,COc1cc(-c2nnc(-c3ccc(C)c(S(=O)(=O)N4CCOCC4)c3)o2)cc(OC)c1OC,891
3,CC1(C)COCN1S(=O)(=O)c1ccc(C(=O)Nc2nnc(-c3ccc(F)cc3)o2)cc1,811
4,CCOC(=O)c1ccc(NC(=O)Cn2c(=O)n(CC)c(=O)c3c2cc(C)n3C)cc1,771
5,CCc1sc(NC(=O)C2CC(=O)N(CCc3c[nH]c4ccc(Cl)cc34)C2)nc1-c1ccccc1 (configuration not stated),1060
6,COc1ccccc1-c1nc(Cn2c(=O)c3c(C)cc(C)nc3n(C)c2=O)c(C)o1,1070
7,CCc1noc(NC(C)=O)c1-c1ccc(C)c(S(=O)(=O)NC2CCC(C)CC2)c1 (configuration not stated),937
8,CN(C)C(=O)c1cc2c(s1)CCC(C(=O)Nc1ccccc1)C2 (configuration not stated),772
9,CCCC(NC(=O)c1cccs1)C(=O)Nc1nc2ccccc2[nH]1 (configuration not stated),668
10,CCN(CC)S(=O)(=O)c1ccc2c(c1)N(CC(=O)NC1CC1)C(=O)C1CCCCN21 (configuration not stated),681
11,Cc1ccc(NC(=O)Cn2c(=O)c(CCC(=O)NC3CCCC3)nc3ccccc32)cc1C,863
12,COCCCNC(=O)C1CCCN(c2cnc3nc(C)c(C)nc3c2)C1 (configuration not stated),619
13,CC(=O)N1CCC(n2c(C)nc(C(=O)Nc3ccc4c(c3)OCCO4)c2C)CC1,612
14,O=C1NC2(CCN(C(=O)Nc3ccc(Br)cc3)CC2)N=C1c1cccc(F)c1,893
15,Cc1cc(Cl)ccc1NC(=O)c1cnc(-c2ccccc2)nc1-c1ccncc1,956
16,CN(C)c1cc(N2CCCC(NC(=O)c3ccccn3)C2)ncn1 (configuration not stated),559
17,CC1CCN(S(=O)(=O)c2ccc(-c3nnc(C(=O)NCc4ccccc4)o3)cc2)CC1,1040
18,Cc1nc(-c2ccccc2Cl)sc1C(=O)N1CCN(c2ccccn2)CC1,661
19,CCCOc1nc2ccccc2nc1N1CCCC(C(=O)Nc2cc(Cl)ccc2OC)C1 (configuration not stated),611
20,COc1ccc(-c2csc(C)n2)cc1S(=O)(=O)N1CCN(c2cccc(C)c2C)CC1,1270
21,COc1cccc(NS(=O)(=O)c2cc3n(c2)CCN(C(C)C)C3=O)c1,733
22,C=C(C)[C@@H]1CC=C(C(=O)O)CC1,875

row,Compound,RP-LC retention time [s]
1,CC(C)N(C(=O)Cn1c(C2CC(=O)N(C(C)(C)C)C2)nc2ccccc21)c1ccccc1 (configuration not stated),702
2,COc1ccc(C2Cn3cnc(C(=O)N4CCC(C(=O)NC(C)C)CC4)c3CO2)cc1 (configuration not stated),669
3,Cc1noc(C)c1Cc1ccc(C(=O)N2CCCC(c3[nH]ccc3C(N)=O)C2)o1 (configuration not stated),649
4,O=C(Nc1ccccc1Cl)C(=O)c1cn(CC(=O)N2CCCC2)c2ccccc12,1070
5,Cc1noc(C)c1Cc1ccc(C(=O)N2CCC(c3nc(CCOCC4CC4)no3)C2)o1 (configuration not stated),784
6,CCCS(=O)(=O)c1nc2ccc(NS(=O)(=O)c3ccc(F)c(F)c3)cc2s1,973
7,CCc1nncn1C1CCN(S(=O)(=O)c2ccc(F)cc2)CC1,676
8,O=C(NC1(c2nc(-c3cccnc3)no2)CCCCC1)c1ccc[nH]c1=O,667
9,COc1cc(OC)cc(-c2noc(CCn3nc(-c4ccc(Cl)cc4)ccc3=O)n2)c1,1060
10,O=c1ccn(-c2ccc(F)c(F)c2)nc1-c1nc(-c2ccc3c(c2)OCO3)no1,877
11,Cc1noc(C2(NC(=O)Nc3cccc(Cl)c3C)CCCCC2)n1,872
12,O=C(Cn1cc(-c2ccccc2)c2ncnc(N3CCCCC3)c21)Nc1ccccc1,798
13,Cc1cc2cc(CNC(=O)NC3CC(=O)N(c4ccccc4)C3)ccc2[nH]1 (configuration not stated),668
14,O=C(CN1CCc2ccccc2C1C(=O)N1CCCCC1)NCc1ccc(Cl)cc1 (configuration not stated),910
15,CNC(=O)c1cc2nc(N(C)C)n(-c3ccc(OC)cc3)c2s1,888
16,COCCn1cc2c3c(cccc31)CN(C(=O)Nc1ccc(OC)cc1OC)CC2,883
17,CCOc1ccccc1-c1noc(CN2C(=O)COc3ccc(C)cc32)n1,1030
18,CCn1c(C(=O)NC(C)CCc2ccco2)cc2sc(Cl)cc21 (configuration not stated),738
19,Cc1nn(C(C)C(=O)N2CCC(N3CCCCC3)CC2)c(=O)c2nn(-c3ccccc3)c(C)c12 (configuration not stated),622
20,CCOc1ccc(-c2noc(Cn3c(=O)n(CC4CCCO4)c(=O)c4ccccc43)n2)cc1OC (configuration not stated),957
21,COc1ccc(C2(CNC(=O)C(=O)NCC3COc4ccccc4O3)CCOCC2)cc1 (configuration not stated),899
22,NC(=O)C1CCN(S(=O)(=O)c2ccc3[nH]cc(C(=O)O)c(=O)c3c2)CC1,596

row,Compound,RP-LC retention time [s]
1,Cc1ccsc1C(=O)N1CCCn2nc(-c3ccncc3)cc2C1,602
2,COC(=O)C(C)n1cc(-c2nc(-c3ccc(Cl)cc3)no2)ccc1=O (configuration not stated),950
3,Cc1ccc(CNS(=O)(=O)c2cc3n(c2)CCCN(C)C3=O)cc1,711
4,CCCN1C(=O)COc2ccc(-c3noc(C4CC(=O)N(c5cccc(Cl)c5)C4)n3)cc21 (configuration not stated),1080
5,Cc1sc(NC(=O)c2ccccc2F)nc1-c1ccc2c(c1)NC(=O)CO2,878
6,CC(C)Cn1c(=O)c(C(=O)NCCc2cccnc2)nc2cccnc21,635
7,O=C1CCCCC(C(=O)Nc2ccc3c(c2)OCCO3)N1 (configuration not stated),669
8,CC(=O)Nc1nsc(N2CCC(C(=O)NCc3ccccc3F)CC2)n1,659
9,O=C(CCC1CCCC1)Nc1nc(-c2ccccc2)cs1,1180
10,Cc1cc(C(=O)N(CCc2cccs2)Cc2cccnc2)c(C)o1,619
11,COC(=O)c1sccc1NC(=O)C1CCN(Cc2nc(-c3ccc(OC)c(OC)c3)no2)CC1,747
12,O=C(NCCCn1cccn1)C1CCN(c2nnc3ccc(Cl)cn23)CC1,618
13,COC(=O)C1=C(C)NC(C)=C(C(=O)OC)C1c1cccc(NC(=O)NCCCN2CCC(c3cccc(OC)c3)CC2)c1,833
14,CCn1cc(-c2nc(CC(=O)N3CCc4ccccc43)cs2)c2cccnc21,954
15,CCCS(=O)(=O)N1CCN(c2ccc(-n3cccn3)nn2)CC1,694
16,Cc1nn(C(C)C(=O)NCCCN2CCCC2=O)c(=O)c2nn(-c3ccccc3)c(C)c12 (configuration not stated),648
17,CC12C(=O)N(Cc3ccccc3)C(=O)C1C1C=CC2C1 (configuration not stated),844
18,COc1cc(NC(=O)CN2CC(C)Sc3ccccc32)cc(OC)c1 (configuration not stated),971
19,O=C1NCCCCCN(C(=O)c2ccsc2)[C@H]2CCC[C@@H]12,692
20,CCc1ccc(S(=O)(=O)N2CCC(c3cc(N)on3)CC2)cc1,813
21,Cc1ccc(OCc2nn3c(COc4ccc(F)cc4)nnc3s2)cc1C,1100
22,Cc1nc(OCC(=O)Nc2cc(Cl)ccc2Cl)c2ccccc2n1,836

row,Compound,RP-LC retention time [s]
1,CCC(=O)N1CCCC(C(=O)NC2CC2)C1 (configuration not stated),567
2,CC(C)NC(=O)c1ccc(OCC2CCN(C(=O)Cc3ccc(Cl)cc3)CC2)cc1,927
3,COc1ccc(-c2nnc(-c3cc(S(=O)(=O)N4CCCCCC4)ccc3Cl)o2)cc1,1150
4,O=S(=O)(Cc1cccc(Cl)c1)NCC(c1ccc(F)cc1)N1CCOCC1 (configuration not stated),609
5,CCOc1ccc(-c2c(C)nn3c(C)c(C(=O)NCCCN4CCCC4=O)cnc23)cc1OCC,744
6,CC1(C)CC(=O)C2=C(C1)N(CC1CCCO1)C(=O)C2(NC(=O)c1cccnc1)C(F)(F)F (configuration not stated),719
7,COc1ccccc1NC(=O)C1CCN(S(=O)(=O)c2cc(C(=O)N3CCOCC3)cs2)CC1,779
8,Cc1sc(-c2cc(C(F)(F)F)on2)cc1S(=O)(=O)Nc1ccccc1F,1110
9,Cc1cnc(C(=O)NC2C[C@H]3CC[C@@H](C2)N3C(=O)CCC2CCCC2)cn1 (some centres not stated),762
10,CC(C)CC[C@@H](O)[C@](C)(O)C1CC[C@@]2(O)C3=CC(=O)[C@]4(O)C[C@@H](O)[C@@H](O)C[C@]4(C)C3[C@H](O)C[C@]12C (some centres not stated),638
11,COc1nn(C)cc1C(=O)N1CCC(C(=O)NCC2CCCO2)CC1 (configuration not stated),553
12,CCSc1nnc(-c2nn(C)c3c2CN(C(=O)CCc2ccccc2)CC3)n1C,767
13,C=CCN(CC=C)S(=O)(=O)c1ccc(C(=O)Nc2nnc(CSC)o2)cc1,764
14,Cc1ccc(N2CC(c3nc(-c4ccc5oc(C)nc5c4)no3)CC2=O)cc1 (configuration not stated),903
15,Cc1nc(OCC(=O)Nc2ccc(F)cc2F)c2ccccc2n1,742
16,CC1(C(=O)NCc2ccccc2Cl)Cn2cnc(C(=O)NCc3ccccc3)c2C(=O)N1C1CC1 (configuration not stated),789
17,CSc1cccc(NC(=O)C2CCCN(C(=O)Cc3cccc4ccccc34)C2)c1 (configuration not stated),1040
18,COC(=O)c1ncoc1-c1ccccc1C(=O)NC1CCCC1,699
19,Cc1c(-c2ccnc(N3CCN(C)CC3)n2)cnc2nc(-c3cccs3)nn12,601
20,O=C1CC(c2noc(CN3CCN(c4ccccn4)CC3)n2)CN1c1ccc(F)cc1 (configuration not stated),576
21,OCC1OC(n2cnc3c(SCc4ccccc4)ncnc32)C(O)C1O (configuration not stated),663
